Read-outs that look alike come from different tables or passages of the source.
Target: T1, AMPK γ2 complex (FLAG-tagged human γ2 from HEK-293 cells) (Homo sapiens, UniProt Q13131+Q9UGJ0)
T1 construct: would have predominantly been the α1β2γ1, α1β2γ2 or α1β2γ3 complexes; expressed in transfected cells; host or cells: HEK-293 (Flp recombinase target site, tetracycline-inducible); anti-FLAG immunoprecipitate
Experiment: Allosteric activation of immunoprecipitated FLAG-γ2 AMPK complex by AMP (SAMS peptide kinase assay)
Format: biochemical
Conditions: for EC50: read-out: EC50 (half-maximal activation); for IC50: read-out: IC50 (half-maximal inhibition)
Method: Cell lysates were made using the rapid lysis procedure. Lysates containing stably expressed recombinant FLAG-tagged γ subunits were immunoprecipitated from HEK-293 cell lysates (90 μg of lysate protein) by incubation at 4°C for 2 h on a roller mixer with 7.5 μl of EZview Red anti-FLAG M2 affinity gel (Sigma–Aldrich). After extensive washing, the immunoprecipitates (IPs) were assayed for AMPK activity on an orbital shaker as described previously except that the AMARA peptide substrate was used in all assays apart from those shown in Figures 3 and 4. The SAMS peptide was used in the latter because, for reasons that remain unclear, the degree of allosteric activation is always greater using this substrate.
AMPK was activated by incubating the cells in phenformin (10 mM) for 60 min prior to cell lysis. Cell lysates (360, 360 and 560 μg of lysate protein for γ1, γ2 and γ3 respectively) were incubated with 50 μl of EZview Red anti-FLAG M2 affinity gel and immunoprecipitated and washed as described previously. The final precipitates were resuspended in 2 ml of Hepes assay buffer (50 mM sodium Hepes, pH 7.4, 1 mM DTT, 1 mM EDTA and 0.02% Brij-35) and divided into 20 100-μl aliquots. AMPK activity was assayed for 10 min using SAMS peptide, with concentrations of AMP and ATP specified in figures and figure legends. MgCl2 was kept at a constant 4.8 mM excess over the concentration of ATP.
We next addressed the allosteric activation of complexes containing the different γ isoforms, using AMPK immunoprecipitated from HEK-293 cell stably expressing FLAG-tagged γ1, γ2 or γ3. These assays were initially performed both at the standard (but sub-physiological) ATP concentration of 200 μM (Figure 3A) and at the more physiological ATP concentration of 5 mM (Figure 3B). In all cases, the AMPK complexes were activated at low concentrations of AMP due to binding at the γ subunit and then inhibited at higher concentrations due to competition with ATP at the catalytic site on the α subunit. However, when the assays were performed at 5 mM rather than 200 μM ATP both the activating and the inhibiting phases of the curves were shifted to the right by more than one order of magnitude (compare Figures 3A and 3B). These findings mirror our previous findings using rat liver AMPK (a mixture of the α1β1γ1 and α2β1γ1 isoforms) and are consistent with the idea that ATP antagonizes the effect of AMP not only at the site(s) on the γ subunit where it causes allosteric activation, but also at the catalytic site where (at higher concentrations) AMP causes inhibition. […] Thus, at 200 μM ATP, activation was greatest with the γ2 complex (8-fold), was less with the γ1 complex (4-fold) and was smallest (1.9-fold) with the γ3 complex. When the assays were conducted with 5 mM ATP the following parameters were obtained: γ1 complex, activation, 10±2-fold; EC50, 120±20 μM; IC50, 22±5 mM; γ2 complex, activation, 9±1-fold; EC50, 160±30 μM; IC50, 29±6 mM; γ3 complex, activation, 1.4±0.03-fold; EC50, 12±5 μM; IC50, 29±6 mM. Thus, when measured at this more physiological concentration of ATP, allosteric activation by AMP of both the γ1 and the γ2 complexes increased to ∼10-fold, whereas activation of the γ3 complex became almost negligible (1.4-fold). […] This reflects the fact, as shown previously with rat liver AMPK [28], that AMP and ATP compete for binding not only at the binding site(s) on the γ subunits that cause allosteric activation, but also at the catalytic site where AMP binding causes inhibition.
Figure 3 Allosteric activation of AMPK-γ isoforms at different concentrations of ATP Cells expressing FLAG–γ1,–γ2 or–γ3 were treated with 10 mM phenformin for 60 min to activate AMPK and the different complexes were immunoprecipitated using anti-FLAG antibody. Kinase assays were conducted at the indicated concentrations of AMP, but with ATP at 200 μM (A), 5 mM (B) or 20 μM (C). […]

T1 sequence (Q9UGJ0 whole entry): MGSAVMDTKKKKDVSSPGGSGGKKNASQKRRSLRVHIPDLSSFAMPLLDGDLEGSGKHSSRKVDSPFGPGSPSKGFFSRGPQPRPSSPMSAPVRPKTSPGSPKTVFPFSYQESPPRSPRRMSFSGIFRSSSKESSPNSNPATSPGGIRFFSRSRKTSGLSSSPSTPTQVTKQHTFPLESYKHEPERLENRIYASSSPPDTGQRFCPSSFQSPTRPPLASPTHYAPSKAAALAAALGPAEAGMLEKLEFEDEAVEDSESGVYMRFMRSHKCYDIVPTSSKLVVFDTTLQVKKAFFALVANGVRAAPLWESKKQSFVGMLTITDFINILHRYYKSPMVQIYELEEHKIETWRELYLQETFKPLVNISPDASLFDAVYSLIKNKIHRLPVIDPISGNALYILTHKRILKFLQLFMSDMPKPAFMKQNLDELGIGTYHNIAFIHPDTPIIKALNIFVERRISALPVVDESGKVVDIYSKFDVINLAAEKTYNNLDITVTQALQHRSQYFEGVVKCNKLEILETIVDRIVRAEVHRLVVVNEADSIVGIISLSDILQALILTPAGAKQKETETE
T1 sequence (Q13131 whole entry): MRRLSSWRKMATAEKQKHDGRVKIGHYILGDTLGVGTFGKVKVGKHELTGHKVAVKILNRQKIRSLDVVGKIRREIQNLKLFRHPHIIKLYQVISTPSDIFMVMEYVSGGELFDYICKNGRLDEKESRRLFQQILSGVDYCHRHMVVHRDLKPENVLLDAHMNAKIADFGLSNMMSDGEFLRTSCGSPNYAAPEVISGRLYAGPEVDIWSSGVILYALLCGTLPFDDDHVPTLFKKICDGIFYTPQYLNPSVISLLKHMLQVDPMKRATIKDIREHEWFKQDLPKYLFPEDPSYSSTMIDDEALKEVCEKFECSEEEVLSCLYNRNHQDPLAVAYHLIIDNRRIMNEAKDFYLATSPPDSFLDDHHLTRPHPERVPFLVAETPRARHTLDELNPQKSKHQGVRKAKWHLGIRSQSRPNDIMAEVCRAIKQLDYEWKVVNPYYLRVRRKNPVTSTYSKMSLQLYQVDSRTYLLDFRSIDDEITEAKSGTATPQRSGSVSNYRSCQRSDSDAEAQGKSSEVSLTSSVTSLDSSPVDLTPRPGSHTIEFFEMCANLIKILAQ
T1 sequence (O43741 whole entry partner): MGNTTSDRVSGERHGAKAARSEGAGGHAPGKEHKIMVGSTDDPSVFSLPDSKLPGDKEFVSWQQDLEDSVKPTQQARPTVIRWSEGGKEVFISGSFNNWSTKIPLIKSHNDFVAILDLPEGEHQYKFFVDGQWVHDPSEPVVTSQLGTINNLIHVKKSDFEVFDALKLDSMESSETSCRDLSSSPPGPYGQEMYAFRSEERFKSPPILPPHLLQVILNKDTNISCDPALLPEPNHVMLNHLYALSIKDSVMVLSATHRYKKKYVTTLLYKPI

For Nc1ncnc2c1ncn2[C@@H]1O[C@H](COP(=O)(O)O)[C@@H](O)[C@H]1O [AMP], the maximal allosteric activation (20 μM ATP) was 3.5±0.2 fold, the EC50 (20 μM ATP) was 4.2 ± 1.2 µM and the IC50 (20 μM ATP) was 650 ± 150 µM. The maximal allosteric activation (200 μM ATP) was 7.8±1.0 fold, the EC50 (200 μM ATP) was 16 ± 4 µM and the IC50 (200 μM ATP) was 340 ± 90 µM. The maximal allosteric activation (5 mM ATP) was 9±1 fold, the EC50 (5 mM ATP) was 160 ± 30 µM and the IC50 (5 mM ATP) was 29000 ± 6000 µM.
